Results: publication PMC4712559, “Isolation and characterization of Bradykinin potentiating peptides from Agkistrodon bilineatus venom” (Proteome Science, 2016)
Where a SMILES comes first, the peptide text is derived from it.

Molecular target: T1, Angiotensin converting enzyme from rabbit lung (Oryctolagus cuniculus, UniProt P12822)
T1 construct: Angiotensin converting enzyme from rabbit lung (A6778- 0.25 UN), was obtained from Sigma; purchased Sigma A6778; host or cells: rabbit lung tissue
T1 sequence (P12822 34-1310): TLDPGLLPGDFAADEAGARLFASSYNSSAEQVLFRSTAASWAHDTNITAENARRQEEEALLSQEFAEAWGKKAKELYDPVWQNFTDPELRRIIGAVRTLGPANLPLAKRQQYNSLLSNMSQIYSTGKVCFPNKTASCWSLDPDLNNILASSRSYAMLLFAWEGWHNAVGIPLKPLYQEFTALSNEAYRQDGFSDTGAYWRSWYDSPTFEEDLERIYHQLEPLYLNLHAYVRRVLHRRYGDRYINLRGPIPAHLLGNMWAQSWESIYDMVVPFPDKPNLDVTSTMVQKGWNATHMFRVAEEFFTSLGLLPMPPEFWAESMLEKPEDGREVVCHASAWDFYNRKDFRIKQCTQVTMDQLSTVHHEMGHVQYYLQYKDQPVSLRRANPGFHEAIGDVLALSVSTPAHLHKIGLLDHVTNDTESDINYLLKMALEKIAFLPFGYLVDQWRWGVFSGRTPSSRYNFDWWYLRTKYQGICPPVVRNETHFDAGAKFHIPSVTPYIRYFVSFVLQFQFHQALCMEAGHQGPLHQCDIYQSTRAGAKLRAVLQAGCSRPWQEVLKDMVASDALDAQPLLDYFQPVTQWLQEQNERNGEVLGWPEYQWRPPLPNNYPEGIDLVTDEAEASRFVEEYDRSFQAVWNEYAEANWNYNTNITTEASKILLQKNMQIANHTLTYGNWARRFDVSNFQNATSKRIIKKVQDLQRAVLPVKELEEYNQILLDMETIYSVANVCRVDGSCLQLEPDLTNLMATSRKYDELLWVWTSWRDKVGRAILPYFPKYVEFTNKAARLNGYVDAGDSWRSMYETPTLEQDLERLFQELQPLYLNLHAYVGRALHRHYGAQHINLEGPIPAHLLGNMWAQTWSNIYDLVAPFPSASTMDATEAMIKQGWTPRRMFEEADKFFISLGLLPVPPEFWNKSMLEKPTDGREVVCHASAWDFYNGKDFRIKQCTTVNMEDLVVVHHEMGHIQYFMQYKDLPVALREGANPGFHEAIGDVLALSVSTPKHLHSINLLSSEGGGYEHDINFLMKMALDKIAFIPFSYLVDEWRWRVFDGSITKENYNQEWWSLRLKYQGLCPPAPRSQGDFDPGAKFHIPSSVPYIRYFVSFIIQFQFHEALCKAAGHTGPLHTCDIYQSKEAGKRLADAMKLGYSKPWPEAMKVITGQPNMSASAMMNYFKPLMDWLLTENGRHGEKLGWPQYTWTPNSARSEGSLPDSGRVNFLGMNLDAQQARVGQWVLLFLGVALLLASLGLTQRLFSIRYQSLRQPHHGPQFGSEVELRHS
Assay: ACE inhibition by synthetic BPPs, fluorescence energy transfer assay with Abz-Phe-Arg-Lys(Dnp)-Pro-OH
Format: biochemical
Conditions: for ACE inhibition / IC 50, in words: qualitative comparison of the four synthesized peptides; for IC50: rabbit lung ACE, FRET substrate Abz-Phe-Arg-Lys(Dnp)-Pro-OH, Tris/NaCl/ZnCl2 buffer, pH 7.0, 10 min incubation at room temperature, λex 320 nm, λem 420 nm, 5 min, six serial dilutions 0.500-0.002 mM, 5 μl of dilution in assay, repeated five times
Experimental: The snake venom of Agkistrodon bilineatus bilineatus, was obtained from Venom Supplies, Australia, and was placed at -20° till further use. The venom was collected from the snakes bred in the farms of Venom Supplies, Australia. All the solvents used were of HPLC grade and were obtained from Merck. The substrate Abz-Phe-Arg-Lys (Dnp)-Pro-OH for angiotensin converting enzyme was obtained from BACHEM. Angiotensin converting enzyme from rabbit lung (A6778- 0.25 UN), was obtained from Sigma. The synthesized peptides ZLWPRPQIPP, ZQWAQGRAPHPP, ZSAPGNEAIPP, ZNWPHPQIPP were purchased from China Peptide company, Shanghai, China. The peptides were 95 % pure, and were kept at -20° till use. The N-terminus of these synthetic peptide is pyroglutame (represented by Z), while the C-terminus is an amino acid with free carboxylic group.
ACE activities in the presence of venom peptides were determined by a fluorescence energy transfer assay using Abz-Phe-Arg-Lys (Dnp)-Pro-OH as a substrate. 1 mg of the substrate was weighed and dissolved in 1 ml DMSO. The exact concentration of the substrate was determined by taking four different volumes of the substrate stock solution, and constructing a standard curve spectrophometrically at 365 nm, using the molar extinction coefficient of the Dnp group ([…] = 17,300 M^−1 cm^−1), according to the Beer’s Lambert Law (A = εDnp x l x c). A stock solution of the enzyme was prepared by suspending 0.25 UN of ACE in 250 μl of the assay buffer (12.10 g Tris-base, 2.92 g NaCl and 1.36 mg ZnCl2 in 1 l of deionised water, pH to 7.0 adjusted with HCl).
In order to determine the IC 50 values of the synthesized peptides, a stock solution (10 mM) of each was prepared in the assay buffer. From the stock solutions, six serial dilutions were prepared for each peptide. The concentrations of the six dilutions were as follows, 0.500 mM, 0.167 mM, 0.056 mM, 0.019 mM, 0.006 mM and 0.002 mM respectively. In the final assay, 85 μl of the assay buffer, 2 μl of the enzyme stock solution, and 5 μl of the dilute peptide solution were added. The mixture was incubated for 10 min at room temperature. The reaction was started by adding 10 μl of the working solution of the substrate (20 μl of the stock +280 μl of the assay buffer). The same procedure was adopted using 5 μl of venom fractions instead of the synthetic peptides. Fluorescence measurements were made at λex = 320 nm and at λem = 420 nm, for 5 min each. These experiments were repeated five times to ensure accuracy of the results.

SMILES: CC[C@H](C)[C@H](NC(=O)[C@H](CCC(N)=O)NC(=O)[C@@H]1CCCN1C(=O)[C@H](CCCNC(=N)N)NC(=O)[C@@H]1CCCN1C(=O)[C@H](Cc1c[nH]c2ccccc12)NC(=O)[C@H](CC(C)C)NC(=O)[C@@H]1CCC(=O)N1)C(=O)N1CCC[C@H]1C(=O)N1CCC[C@H]1C(=O)O [Inhibitor 1 (P6)] (HELM PEPTIDE1{[Glp].L.W.P.R.P.Q.I.P.P}$$$$V2.0)
- ACE inhibition / IC 50, in words (listed as ZLWPRPQXPP): strongest inhibitors
- ACE inhibition / IC 50, in words (listed as peptide 6): low IC 50 values
- IC50: 640 nM

SMILES: C[C@H](NC(=O)[C@H](Cc1c[nH]c2ccccc12)NC(=O)[C@H](CCC(N)=O)NC(=O)[C@@H]1CCC(=O)N1)C(=O)N[C@@H](CCC(N)=O)C(=O)NCC(=O)N[C@@H](CCCNC(=N)N)C(=O)N[C@@H](C)C(=O)N1CCC[C@H]1C(=O)N[C@@H](Cc1c[nH]cn1)C(=O)N1CCC[C@H]1C(=O)N1CCC[C@H]1C(=O)O [Inhibitor 2 (P7)] (HELM PEPTIDE1{[Glp].Q.W.A.Q.G.R.A.P.H.P.P}$$$$V2.0)
- ACE inhibition / IC 50, in words (listed as ZQWAQGRAPHPP): low IC 50 value
- ACE inhibition / IC 50, in words (listed as peptide 7): low IC 50 values
- IC50: 3630 nM

SMILES: CC[C@H](C)[C@H](NC(=O)[C@H](C)NC(=O)[C@H](CCC(=O)O)NC(=O)[C@H](CC(N)=O)NC(=O)CNC(=O)[C@@H]1CCCN1C(=O)[C@H](C)NC(=O)[C@H](CO)NC(=O)[C@@H]1CCC(=O)N1)C(=O)N1CCC[C@H]1C(=O)N1CCC[C@H]1C(=O)O [Inhibitor 3 (P5)] (HELM PEPTIDE1{[Glp].S.A.P.G.N.E.A.I.P.P}$$$$V2.0)
- ACE inhibition / IC 50, in words: much higher value
- IC50: 30000 nM

SMILES: CC[C@H](C)[C@H](NC(=O)[C@H](CCC(N)=O)NC(=O)[C@@H]1CCCN1C(=O)[C@H](Cc1c[nH]cn1)NC(=O)[C@@H]1CCCN1C(=O)[C@H](Cc1c[nH]c2ccccc12)NC(=O)[C@H](CC(N)=O)NC(=O)[C@@H]1CCC(=O)N1)C(=O)N1CCC[C@H]1C(=O)N1CCC[C@H]1C(=O)O [Inhibitor 4 (P3)] (HELM PEPTIDE1{[Glp].N.W.P.H.P.Q.I.P.P}$$$$V2.0)
- ACE inhibition / IC 50, in words (listed as ZNWPHPQXPP): strongest inhibitors
- ACE inhibition / IC 50, in words (listed as peptide 5): low IC 50 values
- IC50: 760 nM
